# Measured values from patent publication US8026228B2, “Estrogenic compounds in combination with progestogenic compounds in hormone-replacement therapy” (Pantarhei Bioscience B.V., priority 2001, dated 2011).
# Columns and labels:
# immature rat uterus = conditions: continuous administration from a subcutaneous depot, Martucci et al. 1977; cited from earlier work
# [1] = tested on: human breast cancer cells (MCF-7); conditions: in vitro cell proliferation, Jozan et al. 1981; cited from earlier work
# [2] = target: T1, human sex Hormone Binding Globulin (SHBG) (Homo sapiens, UniProt P04278); test: Competitive steroid-binding assay; conditions: [^3H]DHT or [^3H]estradiol as labeled ligands; order ethinylestradiol, 17β-estradiol, testosterone, 5α-dihydrotestosterone
# T1 construct: Human SHBG was purified from transgenic mouse serum; made in house; host or cells: transgenic mouse (serum)
# T1 sequence (P04278 30-402): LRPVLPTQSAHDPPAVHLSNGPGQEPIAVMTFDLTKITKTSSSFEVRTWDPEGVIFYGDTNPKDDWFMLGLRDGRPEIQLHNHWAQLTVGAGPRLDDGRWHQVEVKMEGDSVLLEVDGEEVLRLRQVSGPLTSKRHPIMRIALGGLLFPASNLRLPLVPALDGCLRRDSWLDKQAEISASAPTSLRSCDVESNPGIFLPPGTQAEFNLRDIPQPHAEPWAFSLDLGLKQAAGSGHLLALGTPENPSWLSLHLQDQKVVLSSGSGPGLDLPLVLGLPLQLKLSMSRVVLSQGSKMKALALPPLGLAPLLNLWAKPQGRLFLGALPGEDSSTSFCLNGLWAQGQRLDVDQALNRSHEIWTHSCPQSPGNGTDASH
# Experimental: Human SHBG was treated for 30 min at room temperature with a dextran-coated charcoal (DCC) suspension in phosphate buffered saline (PBS) to remove any steroid ligand. After centrifugation (2,000×g for 10 min) to sediment the DCC, the supernatant containing the human SHBG was diluted in PBS to a concentration of 1 nM based on its steroid binding capacity.
# The average amounts of [^3H]labeled ligands bound to SHBG at each concentration of competitor (B) were expressed as a percentage of the average amounts of [^3H]labeled ligands bound to SHBG in the absence of competitor (B0), and were plotted against the concentration of competitor in each assay tube.
# Sham- and OVX-rats [3] = test: Osteoporosis model: indentation test of distal femur (bone strength); type: in vivo, rat; conditions: oral treatment, dose-dependent
# Experimental: (§1) The ovariectomized aged rat was used as a model for the human disease osteoporosis. This is an established animal model, recommended by the United States Food and Drug Administration (FDA), to evaluate and assess potential agents for osteoporosis prevention and therapy. The anti-resorptive efficacy of estetrol (E4) was tested by ex vivo measuring total and trabecular bone mineral density and bone strength after 4 weeks of treatment at necropsy. 17α-ethinyl-estradiol (EE) and vehicle (1% ethanol/arachidis oil) served as controls in this bioassay.
# Three months old female Sprague-Dawley rats were either sham-operated (Sham) or ovariectomized (OVX) one day prior to commencement of the dosing study. Animals were anesthetized using a ketamine/xylazine anesthetic mixture and underwent a bilateral ovariectomy or were sham-treated. A section of hair on the dorsal surface was shaved and an incision made overlying the lumbar region of the spine. The skin was separated from the underlying fascia so that a second incision could be made through the abdominal musculature approximately caudal to the kidneys. […]
# (§2) Data are expressed as the mean values obtained for each group (n=10).
# The maximum load, stiffness and energy absorbed were determined from load displacement curves. Ultimate strength was calculated by dividing the maximum load by the indenter area. […]
# [4] = tested on: estrogen receptors in the human endometrium; conditions: Tseng et al. 1978; cited from earlier work
# [5] = target: T2, rat uterine cytosol estrogen receptor (Rattus norvegicus, UniProt P06211); conditions: Martucci et al. 1976; cited from earlier work
# T2 construct: rat uterine cytosol estrogen receptor; host or cells: rat uterus (cytosol; nuclear fraction)
# T2 sequence (P06211 1-600): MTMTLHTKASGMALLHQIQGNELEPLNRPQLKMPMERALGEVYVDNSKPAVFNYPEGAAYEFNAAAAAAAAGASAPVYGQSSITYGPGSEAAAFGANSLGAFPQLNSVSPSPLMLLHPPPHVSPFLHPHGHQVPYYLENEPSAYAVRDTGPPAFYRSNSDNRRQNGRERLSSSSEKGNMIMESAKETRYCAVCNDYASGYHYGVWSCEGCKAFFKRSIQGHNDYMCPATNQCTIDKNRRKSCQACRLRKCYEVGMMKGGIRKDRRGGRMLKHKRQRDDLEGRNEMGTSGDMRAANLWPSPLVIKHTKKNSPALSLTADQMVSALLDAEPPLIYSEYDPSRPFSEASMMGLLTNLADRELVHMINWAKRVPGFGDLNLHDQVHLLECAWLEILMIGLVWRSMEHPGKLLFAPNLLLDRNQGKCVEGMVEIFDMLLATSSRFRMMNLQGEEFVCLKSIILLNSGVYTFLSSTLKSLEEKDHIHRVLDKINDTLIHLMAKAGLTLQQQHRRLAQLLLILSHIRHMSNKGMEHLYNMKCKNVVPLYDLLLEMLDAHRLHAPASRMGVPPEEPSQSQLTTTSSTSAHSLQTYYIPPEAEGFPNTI
# [6] = target: T3, rat uterine nuclear estrogen receptor (Rattus norvegicus, UniProt P06211); conditions: Martucci et al. 1976; cited from earlier work
# T3 construct: rat uterine cytosol estrogen receptor; host or cells: rat uterus (cytosol; nuclear fraction)
# T3 sequence (P06211 1-600): T2 sequence (P06211 1-600)
# [7] = intravenous, two adult women, Fishman et al. 1970; cited from earlier work
# ovariectomized rats = test: Vaginal cornification bioassay, oral administration; type: in vivo, rat; conditions: relatively low doses 0.1 and 0.3 mg/kg/day, compared with EE
# Excerpt: Uterine weight increase in the rat is more commonly used as a measure of estrogenicity. […] In the early 1920s it was discovered that follicular fluid from the pig ovary contained a factor(s) that caused cornification/keratinization of the vaginal epithelium in the rat (Allen and Doisy, 1923, JAMA, 81, 819-821; Allen and Doisy, 1924, Am. J. Physiol., 69, 577-588). The so-called vaginal cornification response in rats subsequently provided a bioassay for testing estrogenicity. Vaginal epithelial cornification/keratinization in ovariectomized rats can be produced only by compounds considered to be true estrogens (Jones et al, 1973, Fert. Steril. 24, 284-291). […] Adult intact female CD rats were ovariectomized to induce estrogen deficiency. […] Castrate vaginal smears are indicative that complete ovariectomy was achieved. Treatment commenced following completion of the 7 days of smearing (day 0=first day of dosing). Animals were dosed, once daily for 7 consecutive days. Daily vaginal lavages continued to be obtained for 7 days after dosing was initiated in order to detect vaginal cornification, as an indication of an estrogenic response. […] Data are expressed as the number of rats showing vaginal cornification over the number of rats (ratio) treated.
# Sham- and OVX-rats [8] = test: Osteoporosis model: ex vivo pQCT densitometry of proximal tibiae; type: in vivo, rat; conditions: po 0.1-[…], 4 weeks
# Experimental: as §1
# Three months old female Sprague-Dawley rats were either sham-operated (Sham) or ovariectomized (OVX) one day prior to commencement of the dosing study. Animals were anesthetized using a ketamine/xylazine anesthetic mixture and underwent a bilateral ovariectomy or were sham-treated. […]
# Ex vivo peripheral Quantitative Computed Tomography (pQCT) was performed on the excised left tibiae using a Stratec XCT-RM and associated software (Stratec Medizintechnik GmbH, Pforzheim, Germany, software version 5.40). […] The scans were analyzed using a threshold for delineation of the external boundary. The total and trabecular bone mineral content, area and density at each site were determined. […]
# as §2
# [9] = tested on: morphine-dependent ovariectomized (OVX) rat; test: Hot flush model: naloxone-induced tail skin temperature rise; type: in vivo
# Experimental: The morphine-dependent ovariectomized (OVX) rat was used as a model for postmenopausal hot flush. The potency of estetrol (E4) to prevent tail skin temperature rises, normally accompanied by a drop in core body temperature, after naloxone-induced opiate withdrawal was tested. 17α-ethinyl-estradiol (EE) and vehicle (hydroxy propyl-beta-cyclodextrin 20% wt/vol) served as controls in this bioassay.
# The morphine-dependent ovariectomized (OVX) rat model has been proposed by several investigators (Katovich et al, 1986, Maturitas, 67-76; Merchenthaler et al. 1998, Maturitas, 307-316) as an animal model for the hot flush. During opiate withdrawal with the morphine antagonist naloxone, tail skin temperature (TST) rises and this rise is accompanied by a drop in core body temperature. In addition, the temperature changes are accompanied by surges in LH and a transient tachycardia. These events are similar in magnitude and temporal nature to those observed in the menopausal hot flush.
# Three days prior to the commencement of dosing, animals were anesthetized using a ketamine/xylazine anesthetic mixture and underwent a bilateral ovariectomy. A section of hair on the dorsal surface was shaved and an incision made overlying the lumbar region of the spine. The skin was separated from the underlying fascia so that a second incision could be made through the abdominal musculature approximately caudal to the kidneys. The ovaries were then exteriorized and removed and the musculature was closed with a single suture. The skin incision was closed using surgical staples. Six rats per treatment group were dosed once per day for eight consecutive days prior to and including the day of naloxone-induced opiate withdrawal (the hot flush session). The dosing commenced three days after surgical removal of the ovaries and was administered by oral gavage using a syringe and stainless steel gavage needle. […]
# For the hot flush manipulations the animals were placed in a test cage. […] The tail-skin temperature was recorded until it was stable and the animals were then injected with naloxone HCl (1 mg/kg). […]
Compound,uterotrophic activity (immature rat uterus),"agonistic potency, of the magnitude observed for 17β-estradiol [1] [%]",relative binding affinity for human SHBG [2],"declines in maximum load, stiffness, energy and ultimate strength (Sham- and OVX-rats [3])","relative binding, of 17β-estradiol [4] [%]","relative binding affinity, of 17β-estradiol (100%) [5] [%]","relative binding affinity, of 17β-estradiol (100%) [6] [%]",excretion [7],metabolism [7],onset of vaginal cornification (animals responding at days 1-3) (ovariectomized rats),"total and trabecular bone mineral content and bone mineral density, dose dependence (Sham- and OVX-rats [8])","effect on naloxone-induced TST, dose dependence ([9]; oral treatment, all doses)",effect on naloxone-induced TST compared with EE ([9]; po 3.0 mg/kg/day (highest dose)),"effect on naloxone-induced TST ([9]; po 0.3, 1.0 and 3.0 mg/kg/day (three highest doses))"
"C[C@]12CC[C@@H]3c4ccc(O)cc4CC[C@H]3[C@@H]1[C@@H](O)[C@@H](O)[C@@H]2O [E4, 1,3,5(10)-estratrien-3,15α,16α,17β-tetrol]",very weak uterotrophic activity,2,negligible,prevented the declines,1.5,0.5,0.3,rapidly and completely excreted in urine as the glucosiduronate,virtually no metabolism except for conjugation took place,as fast as in EE-treated animals,consistent dose-dependent increase,clear dose-dependent effect,"suppressive response similar to the potent oral estrogen, 17α-ethinyl estradiol (EE)",attenuated the TST
C[C@]12CCC(=O)C[C@@H]1CC[C@@H]1[C@@H]2CC[C@]2(C)[C@@H](O)CC[C@@H]12 [5α-dihydrotestosterone],–,–,"in this order, show an increased relative binding affinity",–,–,–,–,–,–,–,–,–,–,–
C[C@]12CC[C@H]3[C@@H](CCC4=CC(=O)CC[C@@]43C)[C@@H]1CC[C@@H]2O [testosterone],–,–,"in this order, show an increased relative binding affinity",–,–,–,–,–,–,–,–,–,–,–
